Data from patent US7015249B1, “Methods and compositions for treating diabetes” (Purdue Research Foundation, priority 1997, dated 2006).
Marks after values point to notes of the source that are not given here.

Experiments:
ACO and mAP2 mRNA = test: Tissue-specific gene expression (ACO, mAP2) by RT-PCR in rats fed experimental diets; format: in vivo, rat; conditions: diet 14 days, 1.5% CLA or 0.2% troglitazone, vs control diet
Protocol: Male Zucker fatty (fa/fa) rats and lean littermates (wt) were obtained at six weeks of age from Genetic Models, Inc. (Indianapolis, Ind.). Because the primary aim of the study was to determine the ability of CLA to improve insulin action and prevent the onset of diabetes, all rats were determined normoglycemic prior to assignment to experimental treatments. (The diets are discussed in the subsequent section). After maintaining rats on experimental diets for 14 days, rats were euthanized by CO2 and cervical dislocation and tissues collected, weighed and frozen. RT-PCR was performed as described above. The genes utilized as markers of tissue and subtype specific PPAR activation included Acyl-CoA Oxidase (ACO; found in the liver and induced by PPARα activation), Adipocyte Specific Protein (mAP2; found in adipose tissue and induced by activation of PPARγ) and ACO in the muscle (induced by PPARβ). […] Body weights were measured twice weekly and average food consumption estimated by measuring differences in weight of freshly supplied diet and diet remaining in feeders two days later. […]

Zucker rats = test: Plasma insulin, triglyceride and free fatty acid concentrations in Zucker rats; format: in vivo, rat; conditions: fed, diets 14 days
Excerpt: Diet components were obtained from Dyets, Inc. (Bethlehem, Pa.) and the CLA isomeric mixture (90% pure mixture) from PharmaNutrients, Chicago, Ill. The CLA mixture had the following isomeric distribution: 42% of a composition including cis,trans-9,11 and trans,cis-9,11-octadecadienoic acid; 43.5% trans,cis-10,12-octadecadienoic acid; 1% cis,cis-9,11-octadecadienoic acid; 1% cis,cis-10,12-octadecadienoic acid; and 1.5% of a composition including trans,trans-9,11-octadecadienoic acid and trans,trans-10,12-octadecadienoic acid, all on a weight percent basis. The CLA mixture also included, on a weight percent basis, about 0.5% linoleate, about 5.5% oleate and about 5% other lipids as discussed above. The thiazolidinedione, TZD (Rezulin™, Parke-Davis, Ann Arbor, MI), was used as a positive control for anti-diabetic activity in these studies. Male Zucker fatty (fa/fa) rats and lean littermates (wt) were obtained at six weeks of age from Genetic Models, Inc. (Indianapolis, Ind.). Because the primary aim of the study was to determine the ability of CLA to improve insulin action and prevent the onset of diabetes, all rats were determined normoglycemic prior to assignment to experimental treatments. After maintaining rats on experimental diets for 14 days, rats were euthanized by CO2 and cervical dislocation and blood collected and immediately analyzed for post-prandial glucose concentrations (see below) or placed into heparinized test tubes for plasma analyses as described below. Epididymal fat pads and livers were harvested and weighed. An aliquot of the epididymal fat pad was isolated into buffered saline for glucose transport analyses and the remaining epididymal fat pad and gastrocnemius muscle were isolated, immediately frozen in liquid nitrogen and stored at −80° C. until mRNA and protein analyses were performed. Three isocaloric, experimental diets were formulated according to a modified AIN-76 mixture containing 6.5% (by weight) fat (diet described in American Institute of Nutrition: Report of the American Institute of Nutrition Ad Hoc Committee on Standards for Nutritional Studies, J. Nutr. 107 1340–1348 (1977) but includes 6.5% by weight fat instead of 5% by weight fat). […] Body weights were measured twice weekly and average food consumption estimated by measuring differences in weight of freshly supplied diet and diet remaining in feeders two days later. […] Blood glucose levels were determined using a One Touch glucose meter (Lifescan, Inc.). Plasma insulin levels were determined using commercially available radioimmunoassay kits (Linco Research, St. Charles, Mo.). Plasma nonesterified fatty acids were quantified using a calorimetric kit (Wako). Plasma triglyceride concentrations were determined using a commercially available kit (Sigma Diagnostics, St. Louis, Mo.).

`Cc1c(C)c2c(c(C)c1O)CCC(C)(COc1ccc(CC3SC(=O)NC3=O)cc1)O2` (centres unmarked) [Troglitazone] was tested, and the “ACO mRNA expression in tissue with predominantly PPARβ (muscle)” value (ACO and mAP2 mRNA) was “no effect”, the “Free Fatty Acids + S.D.” value (Zucker rats; fa/fa rats) was 0.778 + 0.378^c mMol and the “Plasma Triglycerides ± S.D.” value (Zucker rats; fa/fa rats) was 57.08 ± 12.3^c mg/dl. For the same molecule, the “Free Fatty Acids + S.D.” value (Zucker rats; wt (lean) rats) was 1.139 + 0.277^c mMol and the “Plasma Triglycerides ± S.D.” value (Zucker rats; wt (lean) rats) was 61.1 ± 12.1^c mg/dl.
